Laboratory results taken from US20060258711A1, “Treatment of drug abuse” (Wyeth, priority 2005, published 2006).

Test system: rats
Test: Open field test of locomotor activity with or without cocaine
Format: in vivo, rat
Conditions: dosed 1 hour before 5-minute open field test
Protocol: Rats were dosed either with vehicle or with cocaine in the presence or absence of Compound 1 (0.1 mg/kg. sc). One hour after dosing (i.p. & s.c.), rats were put in a open field, where distance moved and zones crossed were recorded by the ethovision program.
Animals were brought to the lab room 1 hour before the start of the experiment. Rats were injected with compound(s) 1 hour before being placed in the open field. Rats were then placed in open field, and the test lasted for five minutes.

NCC1Cc2cc(F)cc(-c3c(Cl)cccc3Cl)c2O1 (centres unmarked) [Compound 1, (7-(2,6-dichlorophenyl)-5-fluoro-2,3-dihydrobenzofuran-2-yl)methanamine]
reversal of the hyperactivity produced by cocaine (0.1 mg/kg sc + cocaine 3 mg/kg ip, FIG. 1): completely reversed | effect on locomotor activity alone (0.1 mg/kg sc + vehicle): no effect
